Laboratory results published in publication PMC7333355, “Functional and Regulatory Characterization of Three AMTs in Maize Roots” (Frontiers in Plant Science, 2020).
Blank lines part the entries; values can stand above or below the molecule they belong to.

What was measured:
AtAMT1;3 = target: T1, AtAMT1;3 (Arabidopsis thaliana, UniProt Q9SQH9); settings: 1 mM ammonium chloride
T1 construct: gene AMT1-3

ZmAMT1.1a = target: T2, ZmAMT1.1a (Zea mays, UniProt B4FRK2); assay: two-electrode voltage clamp, Xenopus oocytes, inhibition of ammonium-induced current; assay type: cell-based; settings: read-out: % inhibition at 10 mM
T2 construct: full-length cDNA from maize root RNA in pCI vector, expressed in Xenopus laevis oocytes; no tag stated
T2 sequence (B4FRK2 1-498): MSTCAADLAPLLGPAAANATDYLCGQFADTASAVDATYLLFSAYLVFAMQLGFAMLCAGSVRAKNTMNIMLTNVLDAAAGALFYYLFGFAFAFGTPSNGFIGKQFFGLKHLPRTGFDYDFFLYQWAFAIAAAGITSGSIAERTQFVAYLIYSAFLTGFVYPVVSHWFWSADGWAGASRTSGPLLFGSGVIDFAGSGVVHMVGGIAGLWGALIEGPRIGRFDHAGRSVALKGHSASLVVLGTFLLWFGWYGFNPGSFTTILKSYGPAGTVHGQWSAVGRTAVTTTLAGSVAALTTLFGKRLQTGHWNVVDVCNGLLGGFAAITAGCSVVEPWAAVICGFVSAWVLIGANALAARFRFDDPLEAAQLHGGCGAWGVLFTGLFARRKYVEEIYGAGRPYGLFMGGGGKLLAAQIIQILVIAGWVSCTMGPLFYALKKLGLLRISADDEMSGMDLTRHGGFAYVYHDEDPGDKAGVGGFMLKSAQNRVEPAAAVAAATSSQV

ZmAMT1.1b = target: T3, ZmAMT1.1b (Zea mays, UniProt B4FV06); assay: as above; assay type: cell-based; settings: read-out: % inhibition at 10 mM
T3 construct: full-length cDNA from maize root RNA in pCI vector, expressed in Xenopus laevis oocytes; no tag stated
T3 sequence (B4FV06 1-489): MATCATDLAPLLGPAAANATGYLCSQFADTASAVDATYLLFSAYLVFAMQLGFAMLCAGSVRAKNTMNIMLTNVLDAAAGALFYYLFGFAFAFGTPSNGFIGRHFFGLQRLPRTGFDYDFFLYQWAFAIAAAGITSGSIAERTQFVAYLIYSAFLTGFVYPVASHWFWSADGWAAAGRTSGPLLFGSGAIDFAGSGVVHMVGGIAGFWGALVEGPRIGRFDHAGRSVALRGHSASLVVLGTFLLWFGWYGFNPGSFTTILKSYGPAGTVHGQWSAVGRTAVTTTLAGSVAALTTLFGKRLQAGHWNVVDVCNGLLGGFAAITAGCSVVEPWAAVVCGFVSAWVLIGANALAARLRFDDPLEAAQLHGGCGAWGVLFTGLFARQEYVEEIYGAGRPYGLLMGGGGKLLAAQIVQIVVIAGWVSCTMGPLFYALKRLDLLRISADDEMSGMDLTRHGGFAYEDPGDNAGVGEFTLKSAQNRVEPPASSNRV

ZmAMT1.3 = target: T4, ZmAMT1.3 (Zea mays, UniProt B4F978); assay: as above; assay type: cell-based; settings: read-out: % inhibition at 10 mM
T4 construct: full-length cDNA from maize root RNA in pCI vector, expressed in Xenopus laevis oocytes; no tag stated
T4 sequence (B4F978 1-488): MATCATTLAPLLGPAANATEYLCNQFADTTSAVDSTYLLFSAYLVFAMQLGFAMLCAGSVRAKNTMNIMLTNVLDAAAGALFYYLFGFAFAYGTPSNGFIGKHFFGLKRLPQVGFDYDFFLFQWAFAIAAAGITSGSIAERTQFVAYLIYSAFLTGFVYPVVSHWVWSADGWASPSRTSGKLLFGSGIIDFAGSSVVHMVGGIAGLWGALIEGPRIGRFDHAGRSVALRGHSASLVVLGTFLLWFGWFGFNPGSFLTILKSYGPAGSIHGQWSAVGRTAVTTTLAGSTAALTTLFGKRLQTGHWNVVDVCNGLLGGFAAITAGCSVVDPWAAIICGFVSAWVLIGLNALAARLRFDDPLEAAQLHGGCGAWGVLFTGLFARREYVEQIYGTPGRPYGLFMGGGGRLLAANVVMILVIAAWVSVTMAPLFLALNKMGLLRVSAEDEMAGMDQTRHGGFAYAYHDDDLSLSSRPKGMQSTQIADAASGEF

[1] = substrate: CN; assay: two-electrode voltage clamp, Xenopus oocytes, Michaelis-Menten fit of induced currents; assay type: cell-based, Zea mays; settings: pH 7.4, -140 mV, added as chloride
[2] = substrate: N; assay: cells, lysate or membranes; settings: added as chloride

T1 sequence (Q9SQH9 whole entry): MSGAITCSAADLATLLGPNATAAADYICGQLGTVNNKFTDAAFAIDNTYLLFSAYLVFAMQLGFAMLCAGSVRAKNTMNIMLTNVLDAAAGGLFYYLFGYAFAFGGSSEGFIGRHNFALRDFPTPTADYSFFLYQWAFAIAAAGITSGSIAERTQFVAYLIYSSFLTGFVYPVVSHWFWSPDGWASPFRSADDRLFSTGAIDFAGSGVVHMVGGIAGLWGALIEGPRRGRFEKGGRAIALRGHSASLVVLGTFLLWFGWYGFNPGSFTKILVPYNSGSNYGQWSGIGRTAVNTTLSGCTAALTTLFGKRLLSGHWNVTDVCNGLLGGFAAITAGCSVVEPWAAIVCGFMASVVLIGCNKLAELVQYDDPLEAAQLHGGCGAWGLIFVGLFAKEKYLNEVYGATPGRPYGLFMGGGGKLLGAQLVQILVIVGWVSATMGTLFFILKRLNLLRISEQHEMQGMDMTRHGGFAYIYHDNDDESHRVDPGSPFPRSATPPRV

Molecule: N [ammonium]
two-electrode voltage clamp, Xenopus oocytes, induced current (AtAMT1;3): Significant ammonium-induced currents were detected in AtAMT1;3-expressing oocytes

inhibition at 10000 µM (ZmAMT1.1a): 69.9% | inhibition at 10000 µM (ZmAMT1.1b): 67.5% | inhibition at 10000 µM (ZmAMT1.3): 55.4%
Molecule: NC(=O)CC[C@H](N)C(=O)O [glutamine]

B1: ZmAMT1.1a (Zea mays) (protein)
chain: T2 sequence (B4FRK2 1-498)
notes: full-length cDNA from maize root RNA in pCI vector, expressed in Xenopus laevis oocytes; no tag stated
Km [1]: 1900 ± 400 µM | Km ([2]; pH 7.4, -140 mV): 9.9 ± 1.9 µM

B2: ZmAMT1.3 (Zea mays) (protein)
chain: T4 sequence (B4F978 1-488)
Km ([2]; pH 7.4, -140 mV (potential inferred from Figure 3D range)): 18.6 ± 2.8 µM

B3: ZmAMT1.1b (Zea mays) (protein)
chain: T3 sequence (B4FV06 1-489)
Km ([2]; pH 7.4, -140 mV (potential inferred from Figure 2D range)): 15.6 µM
